Among the data in patent US9409905B2, “Antibacterial compounds and methods for use” (PTC THERAPEUTICS, INC., priority 2011, dated 2016) are MIC values, retold here.

The subject of one assay is E. coli 25922. The assay is described as follows: Antibacterial activity, microbroth dilution MIC (Table 1). The format is cell-based, Escherichia coli. As to conditions: Escherichia coli; microbroth dilution; control Gram-negative E. coli 25922 strain; read-out: MIC, 25922. The text has this:
(§1) The antibacterial activity from a microbroth dilution method may be presented as the minimum inhibitory concentration (MIC in μg/mL). The MIC value is the lowest concentration of drug which prevents macroscopically visible growth under test conditions.
(§2) Antibacterial activity of test compounds against the super sensitive Gram-negative Escherichia coli (E. coli) BAS849 bacterium, the control Gram-negative E. coli 25922 strain and the Gram-positive Staphylococcus aureus (S. aureus) 29213 bacterium are shown in Table 1.

Assay [1] relates to Staphylococcus aureus (S. aureus) 29213. Described as above. Particulars: microbroth dilution, Gram-positive S. aureus 29213, read-out: MIC, 29213. It is filed as cell-based.
Text: as §1, §2

For assay [2], the system named is Escherichia coli (E. coli) BAS849. The description is as above. The format is cell-based. As to conditions: microbroth dilution, super sensitive Gram-negative E. coli BAS849, read-out: MIC, BAS849.
Text: as §1, §2

The subject of a further assay is E. coli LZ3111. The assay is described as follows: Antibacterial activity, MIC, quinolone resistant strain (Table 2). The format is cell-based. Particulars: Escherichia coli, LZ3111, read-out: MIC LZ3111.
Text: as §1
Mutations in these regions are known to confer a high level resistance to the quinolone class of antibiotics.

Molecules are shown by their SMILES. Values after ≈ are worked out from the molar mass of the structure shown.

As to `CCc1cc(C(=O)O)c(=O)[nH]c1-c1ccc2c(c1)c(C(N)=O)cn2C` [Cpd 73, 6-(3-carbamoyl-1-methyl-1H-indol-5-yl)-5-ethyl-2-oxo-1,2-dihydropyridine-3-carboxylic acid], the MIC (in the assay with E. coli 25922; in assay [1]; in assay [2]; in the assay with E. coli LZ3111) was 12.5 to 150 µg/mL (≈ 36.8 to 442 µM) each time.

With `CCc1cc(C(=O)O)c(=O)[nH]c1-c1ccc2c(c1)c(CN)cn2C` [Cpd 74, 6-(3-(aminomethyl)-1-methyl-1H-indol-5-yl)-5-ethyl-2-oxo-1,2-dihydropyridine-3-carboxylic acid], the MIC (with E. coli 25922; in assay [1]; in assay [2]; with E. coli LZ3111) was 12.5 to 150 µg/mL (≈ 38.4 to 461 µM) throughout.

As for `CCc1cc(C(=O)O)c(=O)[nH]c1-c1ccc2c(c1)c(CN(C)C)cn2C` [Cpd 75, 6-(3-((dimethylamino)methyl)-1-methyl-1H-indol-5-yl)-5-ethyl-2-oxo-1,2-dihydropyridine-3-carboxylic acid], the MIC (in the assay on E. coli 25922; in assay [1]; in assay [2]; in the assay with E. coli LZ3111) was 12.5 to 150 µg/mL (≈ 35.4 to 424 µM) each time.

Turning to `CCc1cc(C(=O)O)c(=O)[nH]c1-c1ccc2c(c1)c(CN(CC)CC)cn2C` [Cpd 76, 6-(3-((diethylamino)methyl)-1-methyl-1H-indol-5-yl)-5-ethyl-2-oxo-1,2-dihydropyridine-3-carboxylic acid], the MIC (with E. coli 25922; in assay [1]; in assay [2]; with E. coli LZ3111) was 12.5 to 150 µg/mL (≈ 32.8 to 393 µM) throughout.

For the molecule `CCc1cc(C(=O)O)c(=O)[nH]c1-c1ccc2c(c1)c(CN(Cc1ccccc1)Cc1ccccc1)cn2C` [Cpd 77, 6-(3-((dibenzylamino)methyl)-1-methyl-1H-indol-5-yl)-5-ethyl-2-oxo-1,2-dihydropyridine-3-carboxylic acid], the MIC was in the range of 12.5 to 150 µg/mL (≈ 24.7 to 297 µM) in the assay with E. coli 25922, 3.5 to 12.5 µg/mL (≈ 6.92 to 24.7 µM) in assay [1], 3.5 to 12.5 µg/mL (≈ 6.92 to 24.7 µM) in assay [2] and 12.5 to 150 µg/mL (≈ 24.7 to 297 µM) with E. coli LZ3111.

On to `CCc1cc(C(=O)O)c(=O)[nH]c1-c1ccc2c(cc(CN3CCCC3)n2C)n1` [Cpd 84, 5-ethyl-6-(1-methyl-2-(pyrrolidin-1-ylmethyl)-1H-pyrrolo[3,2-b]pyridin-5-yl)-2-oxo-1,2-dihydropyridine-3-carboxylic acid], for which the MIC in the assay with E. coli 25922 lay within 3.5 to 12.5 µg/mL (≈ 9.2 to 32.9 µM); in assay [1], 12.5 to 150 µg/mL (≈ 32.9 to 394 µM); in assay [2], 1 to 3.5 µg/mL (≈ 2.63 to 9.2 µM); in the assay with E. coli LZ3111, 12.5 to 150 µg/mL (≈ 32.9 to 394 µM).

With `CCc1cc(C(=O)O)c(=O)[nH]c1-c1ccc2c(c1)cc(C1=NCCN1)n2C` [Cpd 85, 6-(2-(4,5-dihydro-1H-imidazol-2-yl)-1-methyl-1H-indol-5-yl)-5-ethyl-2-oxo-1,2-dihydropyridine-3-carboxylic acid], the MIC in the assay with E. coli 25922 lay within 12.5 to 150 µg/mL (≈ 34.3 to 412 µM); in assay [1], 12.5 to 150 µg/mL (≈ 34.3 to 412 µM); in assay [2], 1 to 3.5 µg/mL (≈ 2.74 to 9.6 µM); with E. coli LZ3111, 12.5 to 150 µg/mL (≈ 34.3 to 412 µM).

On to `CCc1cc(C(=O)O)c(=O)[nH]c1-c1ccc2c(c1)cc(C1=NCCCN1)n2C` [Cpd 86, 5-ethyl-6-(1-methyl-2-(1,4,5,6-tetrahydropyrimidin-2-yl)-1H-indol-5-yl)-2-oxo-1,2-dihydropyridine-3-carboxylic acid], for which the MIC (with E. coli 25922; in assay [1]; in assay [2]; with E. coli LZ3111) was 12.5 to 150 µg/mL (≈ 33 to 396 µM) in each case.

Regarding `CCc1cc(C(=O)O)c(=O)[nH]c1-c1ccc2c(c1)cc(C(C)(C)N(C)C)n2C` [Cpd 87, 6-(2-(2-(dimethylamino)propan-2-yl)-1-methyl-1H-indol-5-yl)-5-ethyl-2-oxo-1,2-dihydropyridine-3-carboxylic acid], the MIC in the assay on E. coli 25922 was 3.5 to 12.5 µg/mL (≈ 9.17 to 32.8 µM); in assay [1], 12.5 to 150 µg/mL (≈ 32.8 to 393 µM); in assay [2], below 1 µg/mL; with E. coli LZ3111 it was 12.5 to 150 µg/mL (≈ 32.8 to 393 µM).

Turning to `CCc1cc(C(=O)O)c(=O)[nH]c1-c1ccc2c(c1)cc(C(C)(C)N1CCCC1)n2C` [Cpd 88, 5-ethyl-6-(1-methyl-2-(2-(pyrrolidin-1-yl)propan-2-yl)-1H-indol-5-yl)-2-oxo-1,2-dihydropyridine-3-carboxylic acid], the MIC in the assay with E. coli 25922 was 3.5 to 12.5 µg/mL (≈ 8.59 to 30.7 µM); in assay [1] it was 12.5 to 150 µg/mL (≈ 30.7 to 368 µM); in assay [2] it was below 1 µg/mL; in the assay with E. coli LZ3111 it was 12.5 to 150 µg/mL (≈ 30.7 to 368 µM).

On to `CCc1cc(C(=O)O)c(=O)[nH]c1-c1cc2cc(CN3CCCC3)n(C)c2cc1C` [Cpd 89, 6-(1,6-dimethyl-2-(pyrrolidin-1-ylmethyl)-1H-indol-5-yl)-5-ethyl-2-oxo-1,2-dihydropyridine-3-carboxylic acid], for which the MIC (in the assay with E. coli 25922; in assay [1]; in assay [2]; in the assay with E. coli LZ3111) was 12.5 to 150 µg/mL (≈ 31.8 to 381 µM) each time.

`CCc1cc(C(=O)O)c(=O)[nH]c1-c1cc2cc(CN3CCCCC3)n(C)c2cc1C` [Cpd 90, 6-(1,6-dimethyl-2-(piperidin-1-ylmethyl)-1H-indol-5-yl)-5-ethyl-2-oxo-1,2-dihydropyridine-3-carboxylic acid]: the minimum inhibitory concentration (MIC) (in the assay with E. coli 25922; in assay [1]; in assay [2]; in the assay with E. coli LZ3111) was 12.5 to 150 µg/mL (≈ 30.7 to 368 µM) throughout.

Regarding `CCc1cc(C(=O)O)c(=O)[nH]c1-c1cc2cc(CN3CCOCC3)n(C)c2cc1Cl` [Cpd 91, 6-(6-chloro-1-methyl-2-(morpholinomethyl)-1H-indol-5-yl)-5-ethyl-2-oxo-1,2-dihydropyridine-3-carboxylic acid], the MIC (with E. coli 25922; in assay [1]; in assay [2]; in the assay on E. coli LZ3111) was 12.5 to 150 µg/mL (≈ 29.1 to 349 µM) in each case.

`CCc1cc(C(=O)O)c(=O)[nH]c1-c1cc2cc(CN(CC)CC)n(C)c2cc1Cl` [Cpd 92, 6-(6-chloro-2-((diethylamino)methyl)-1-methyl-1H-indol-5-yl)-5-ethyl-2-oxo-1,2-dihydropyridine-3-carboxylic acid]: the MIC (in the assay on E. coli 25922; in assay [1]; in assay [2]; in the assay on E. coli LZ3111) was 12.5 to 150 µg/mL (≈ 30.1 to 361 µM) in each case.

As to `CCc1cc(C(=O)O)c(=O)[nH]c1-c1cc2cc(CN(C)C)n(C)c2cc1Cl` [Cpd 93, 6-(6-chloro-2-((dimethylamino)methyl)-1-methyl-1H-indol-5-yl)-5-ethyl-2-oxo-1,2-dihydropyridine-3-carboxylic acid], the MIC (with E. coli 25922; in assay [1]; in assay [2]; in the assay with E. coli LZ3111) was 12.5 to 150 µg/mL (≈ 32.2 to 387 µM) throughout.

Consider `CCc1cc(C(=O)O)c(=O)[nH]c1-c1cc2cc(CN3CCOCC3)n(C)c2cc1C` [Cpd 94, 6-(1,6-dimethyl-2-(morpholinomethyl)-1H-indol-5-yl)-5-ethyl-2-oxo-1,2-dihydropyridine-3-carboxylic acid], for which the MIC (with E. coli 25922; in assay [1]; in assay [2]; with E. coli LZ3111) was 12.5 to 150 µg/mL (≈ 30.5 to 366 µM) each time.

As for `CCc1cc(C(=O)O)c(=O)[nH]c1-c1cc2cc(CN(CC)CC)n(C)c2cc1C` [Cpd 95, 6-(2-((diethylamino)methyl)-1,6-dimethyl-1H-indol-5-yl)-5-ethyl-2-oxo-1,2-dihydropyridine-3-carboxylic acid], the MIC (in the assay on E. coli 25922; in assay [1]; in assay [2]; in the assay on E. coli LZ3111) was 12.5 to 150 µg/mL (≈ 31.6 to 379 µM) throughout.

For the molecule `CCc1cc(C(=O)O)c(=O)[nH]c1-c1cc2cc(CN(C)C)n(C)c2cc1C` [Cpd 96, 6-(2-((dimethylamino)methyl)-1,6-dimethyl-1H-indol-5-yl)-5-ethyl-2-oxo-1,2-dihydropyridine-3-carboxylic acid], the MIC (with E. coli 25922; in assay [1]; in assay [2]; in the assay with E. coli LZ3111) was 12.5 to 150 µg/mL (≈ 34 to 408 µM) throughout.

On to `CCc1cc(C(=O)O)c(=O)[nH]c1-c1cc(F)c2c(c1)cc(CN1CCCC1)n2C` [Cpd 97, 5-ethyl-6-(7-fluoro-1-methyl-2-(pyrrolidin-1-ylmethyl)-1H-indol-5-yl)-2-oxo-1,2-dihydropyridine-3-carboxylic acid], for which the MIC with E. coli 25922 is 1 to 3.5 µg/mL (≈ 2.52 to 8.81 µM); in assay [1], 12.5 to 150 µg/mL (≈ 31.5 to 377 µM); in assay [2], below 1 µg/mL; in the assay with E. coli LZ3111 it was 12.5 to 150 µg/mL (≈ 31.5 to 377 µM).

Take `CCc1cc(C(=O)O)c(=O)[nH]c1-c1cc(F)c2c(c1)cc(CN1CCOCC1)n2C` [Cpd 98, 5-ethyl-6-(7-fluoro-1-methyl-2-(morpholinomethyl)-1H-indol-5-yl)-2-oxo-1,2-dihydropyridine-3-carboxylic acid]: the MIC in the assay with E. coli 25922 was 3.5 to 12.5 µg/mL (≈ 8.47 to 30.2 µM); in assay [1], 12.5 to 150 µg/mL (≈ 30.2 to 363 µM); in assay [2] it was below 1 µg/mL; in the assay with E. coli LZ3111 it was 12.5 to 150 µg/mL (≈ 30.2 to 363 µM).

For the molecule `CCc1cc(C(=O)O)c(=O)[nH]c1-c1cc(C)c2c(c1)cc(CN1CCCC1)n2C` [Cpd 99, 6-(1,7-dimethyl-2-(pyrrolidin-1-ylmethyl)-1H-indol-5-yl)-5-ethyl-2-oxo-1,2-dihydropyridine-3-carboxylic acid], the MIC is 3.5 to 12.5 µg/mL (≈ 8.89 to 31.8 µM) with E. coli 25922, 12.5 to 150 µg/mL (≈ 31.8 to 381 µM) in assay [1], below 1 µg/mL in assay [2] and 12.5 to 150 µg/mL (≈ 31.8 to 381 µM) in the assay with E. coli LZ3111.

With `CCc1cc(C(=O)O)c(=O)[nH]c1-c1cc(C)c2c(c1)cc(CN1CCCCC1)n2C` [Cpd 100, 6-(1,7-dimethyl-2-(piperidin-1-ylmethyl)-1H-indol-5-yl)-5-ethyl-2-oxo-1,2-dihydropyridine-3-carboxylic acid], the MIC with E. coli 25922 was 3.5 to 12.5 µg/mL (≈ 8.59 to 30.7 µM); in assay [1], 12.5 to 150 µg/mL (≈ 30.7 to 368 µM); in assay [2] it was below 1 µg/mL; with E. coli LZ3111 it was 12.5 to 150 µg/mL (≈ 30.7 to 368 µM).

`CCc1cc(C(=O)O)c(=O)[nH]c1-c1cc(F)c2c(c1)cc(CN(CC)CC)n2C` [Cpd 101, 6-(2-((diethylamino)methyl)-7-fluoro-1-methyl-1H-indol-5-yl)-5-ethyl-2-oxo-1,2-dihydropyridine-3-carboxylic acid]: the MIC in the assay with E. coli 25922 was 3.5 to 12.5 µg/mL (≈ 8.76 to 31.3 µM); in assay [1], 12.5 to 150 µg/mL (≈ 31.3 to 376 µM); in assay [2], below 1 µg/mL; in the assay with E. coli LZ3111, 12.5 to 150 µg/mL (≈ 31.3 to 376 µM).
